ChEMBL document CHEMBL1201862, “PubChem BioAssay data set” (2004)
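Test compounds were applied to cells in 96-well plates for 48 hours at 5 doses. GI50 = concentration required for 50% inhibition of growth.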 Calls of active or inactive are those of the source. Cut-off read from the data, not from the text of the source: active = GI50 up to about 1.1 µM and inactive = higher.

Key:
Test in all cases: NCI tumour cell line growth inhibition, 48 h
NCI-H460 = test system: NCI-H460
U-251 = test system: U-251
Hs-578T = test system: Hs-578T
SW-620 = test system: SW-620
EKVX = test system: EKVX
LOX IMVI = test system: LOX IMVI
MCF7 = test system: MCF7
CAKI-1 = test system: CAKI-1
UACC-257 = test system: UACC-257
KM12 = test system: KM12
COLO 205 = test system: COLO 205
MOLT-4 = test system: MOLT-4
BT-549 = test system: BT-549
SK-MEL-28 = test system: SK-MEL-28
MDA-MB-231 = test system: MDA-MB-231
HCT-15 = test system: HCT-15
OVCAR-4 = test system: OVCAR-4
HCC 2998 = test system: HCC 2998
T47D = test system: T47D

SMILES	GI50 (NCI-H460)	GI50 (U-251)	GI50 (Hs-578T)	GI50 (SW-620)	GI50 (EKVX)	GI50 (LOX IMVI)	GI50 (MCF7)	GI50 (CAKI-1)	GI50 (UACC-257)	GI50 (KM12)	GI50 (COLO 205)	GI50 (MOLT-4)	GI50 (BT-549)	GI50 (SK-MEL-28)	GI50 (MDA-MB-231)	GI50 (HCT-15) [µM]	GI50 (OVCAR-4)	GI50 (HCC 2998)	GI50 (T47D)
CCC1C(C#N)=C(N)OC2=C1C(=O)CC(C)(C)C2 (stereo not drawn)	> 100 µM (inactive)	> 100 µM (inactive)	> 100 µM (inactive)	> 100 µM (inactive)	> 100 µM (inactive)	> 100 µM (inactive)	> 100 µM (inactive)	> 100 µM (inactive)	35.9 µM (inactive)	> 100 µM (inactive)	> 100 µM (inactive)	> 100 µM (inactive)	> 100 µM (inactive)	> 100 µM (inactive)	> 100 µM (inactive)	> 100	> 100 µM (inactive)	> 100 µM (inactive)	–
CCCC(=O)NC1CCc2cc(OC)c(OC)c(OC)c2-c2ccc(OC)c(=O)cc21 (stereo not drawn)	0.000644 µM (active)	0.000344 µM (active)	0.000237 µM (active)	0.000481 µM (active)	0.000577 µM (active)	0.00045 µM (active)	0.000257 µM (active)	–	–	0.000449 µM (active)	0.000235 µM (active)	0.000493 µM (active)	0.01 µM (active)	0.01 µM (active)	0.0004 µM (active)	0.00637	–	0.00186 µM (active)	–
O=C(O)/C=C\C(=O)Nc1ccccn1	> 100 µM (inactive)	> 100 µM (inactive)	> 100 µM (inactive)	> 100 µM (inactive)	> 100 µM (inactive)	> 100 µM (inactive)	–	> 100 µM (inactive)	> 100 µM (inactive)	> 100 µM (inactive)	> 100 µM (inactive)	> 100 µM (inactive)	> 100 µM (inactive)	> 100 µM (inactive)	> 100 µM (inactive)	> 100	> 100 µM (inactive)	–	> 100 µM (inactive)
O=c1oc2ccccc2cc1-c1cc2ccccn2c1	> 100 µM (inactive)	> 100 µM (inactive)	> 100 µM (inactive)	> 100 µM (inactive)	> 100 µM (inactive)	> 100 µM (inactive)	0.5 µM (active)	> 100 µM (inactive)	> 100 µM (inactive)	> 100 µM (inactive)	> 100 µM (inactive)	> 100 µM (inactive)	> 100 µM (inactive)	> 100 µM (inactive)	> 100 µM (inactive)	> 100	> 100 µM (inactive)	–	–
CSc1nc(C#N)c(N)n1C	> 100 µM (inactive)	> 100 µM (inactive)	> 100 µM (inactive)	> 100 µM (inactive)	> 100 µM (inactive)	> 100 µM (inactive)	–	> 100 µM (inactive)	> 100 µM (inactive)	> 100 µM (inactive)	> 100 µM (inactive)	> 100 µM (inactive)	> 100 µM (inactive)	> 100 µM (inactive)	> 100 µM (inactive)	> 100	> 100 µM (inactive)	–	> 100 µM (inactive)
O=c1cn[nH]c(=S)n1/N=C/c1c[nH]c2ccccc12	> 100 µM (inactive)	> 100 µM (inactive)	> 100 µM (inactive)	45.3 µM (inactive)	> 100 µM (inactive)	30 µM (inactive)	45.7 µM (inactive)	> 100 µM (inactive)	63 µM (inactive)	> 100 µM (inactive)	> 100 µM (inactive)	37.6 µM (inactive)	72.6 µM (inactive)	> 100 µM (inactive)	–	31.4	88.1 µM (inactive)	> 100 µM (inactive)	–
COc1cc(Cn2c3c(c4cc(O)ccc42)Cc2ccccc2C3=O)cc(OC)c1	62.1 µM (inactive)	57.3 µM (inactive)	> 100 µM (inactive)	54.5 µM (inactive)	–	76.4 µM (inactive)	20.7 µM (inactive)	32.7 µM (inactive)	> 100 µM (inactive)	39.2 µM (inactive)	28.9 µM (inactive)	28.9 µM (inactive)	> 100 µM (inactive)	31.8 µM (inactive)	31 µM (inactive)	33.9	19.9 µM (inactive)	–	–
CC(C)(C)OC(=O)NCC(CNC(=O)OC(C)(C)C)c1nc(C(N)=O)cs1	> 100 µM (inactive)	> 100 µM (inactive)	> 100 µM (inactive)	> 100 µM (inactive)	> 100 µM (inactive)	> 100 µM (inactive)	> 100 µM (inactive)	> 100 µM (inactive)	> 100 µM (inactive)	> 100 µM (inactive)	> 100 µM (inactive)	> 100 µM (inactive)	> 100 µM (inactive)	> 100 µM (inactive)	> 100 µM (inactive)	> 100	> 100 µM (inactive)	> 100 µM (inactive)	–
CCOC(=O)C(O)(NC(=O)Nc1ccc(F)cc1)C(F)(F)F (stereo not drawn)	–	> 100 µM (inactive)	> 100 µM (inactive)	> 100 µM (inactive)	> 100 µM (inactive)	> 100 µM (inactive)	–	38.8 µM (inactive)	> 100 µM (inactive)	–	> 100 µM (inactive)	> 100 µM (inactive)	> 100 µM (inactive)	> 100 µM (inactive)	–	> 100	–	> 100 µM (inactive)	> 100 µM (inactive)
C=C(C)CCC(O)[C@](C)(O)[C@H]1[C@H](O)C[C@@]2(C)[C@@H]3CCc4c(cc(OC5OC(CO)C(O)C(O)C5O)c(O)c4C)C3(C)C(=O)C[C@]12C (stereo partly drawn)	> 100 µM (inactive)	> 100 µM (inactive)	–	> 100 µM (inactive)	> 100 µM (inactive)	> 100 µM (inactive)	> 100 µM (inactive)	> 100 µM (inactive)	> 100 µM (inactive)	> 100 µM (inactive)	> 100 µM (inactive)	> 100 µM (inactive)	> 100 µM (inactive)	> 100 µM (inactive)	> 100 µM (inactive)	> 100	> 100 µM (inactive)	> 100 µM (inactive)	> 100 µM (inactive)
O=C(O)CCNC(=O)c1cc(N(CCBr)CCBr)c([N+](=O)[O-])cc1[N+](=O)[O-]	> 100 µM (inactive)	> 100 µM (inactive)	> 100 µM (inactive)	> 100 µM (inactive)	> 100 µM (inactive)	> 100 µM (inactive)	> 100 µM (inactive)	> 100 µM (inactive)	> 100 µM (inactive)	> 100 µM (inactive)	> 100 µM (inactive)	> 100 µM (inactive)	> 100 µM (inactive)	> 100 µM (inactive)	> 100 µM (inactive)	> 100	> 100 µM (inactive)	> 100 µM (inactive)	–
O=C1/C(=C/c2ccc(O)c(O)c2)CC/C1=C\c1ccc(O)c(O)c1	9.66 µM (inactive)	3.97 µM (inactive)	–	14 µM (inactive)	10.7 µM (inactive)	6.67 µM (inactive)	6.15 µM (inactive)	8.17 µM (inactive)	20.8 µM (inactive)	9.79 µM (inactive)	16.2 µM (inactive)	3.23 µM (inactive)	5.04 µM (inactive)	14.2 µM (inactive)	28.7 µM (inactive)	7.16	5.33 µM (inactive)	> 21.6 µM (inactive)	4.66 µM (inactive)
